Earlier results as cited in patent publication US11214591B2, “Enzyme compositions, steroid derivatives, enzyme inhibitors, and methods of making same for pharmaceutical applications” (BOARD OF REGENTS, THE UNIVERSITY OF TEXAS SYSTEM, priority 2018, dated 2022).

Key:
[1] = male rats
[2] = in vivo
[3] = in vivo; remark: listed apart in the source
[4] = mice feeding study; bile acid composition of micelles

C[C@]12CC[C@H](O)CC1=CC(=O)[C@@H]1[C@@H]2CC[C@]2(C)C(=O)CC[C@@H]12 [7-Keto DHEA, 7-keto dehydroepiandrosterone]
voluntary intake of ethanol [1]: decreased voluntary intake of ethanol

CC(=O)O[C@H]1CC[C@@]2(C)C(=CC(=O)[C@@H]3[C@@H]2CC[C@]2(C)C(=O)CC[C@@H]32)C1 [7-keto DHEA-3OAc, 7-keto dehydroepiandrosterone-3-acetate]
PTSD symptoms [2]: reduce post-traumatic stress disorder (PTSD) symptoms | resting metabolic rate associated with dieting [3]: reverse the resting metabolic rate associated with dieting

C[C@H](CCC(=O)O)[C@H]1CC[C@H]2[C@@H]3[C@H](O)C[C@@H]4C[C@H](O)CC[C@]4(C)[C@H]3CC[C@]12C [chenodeoxycholic acid]
cholesterol absorption [4]: 60%
